Data from patent US10774115B2, “Modified Fab region-binding peptide” (Kaneka Corporation, priority 2015, dated 2020).

Assays:
[1] = test system: aTNF-Fab; assay: Affinity of modified SpG-β1# for aTNF-Fab by surface plasmon resonance (Biacore 3000); conditions: aTNF-Fab immobilized on CM5 sensor tip, 25° C., pH 7.4, 1:1 binding model
Protocol: A humanized monoclonal IgG product as a raw material was fragmented into a Fab fragment and a Fc fragment using papain, and only the Fab fragment was separated and purified. Specifically, anti-human TNFα monoclonal IgG (generic name: “Infliximab”, product name: “Remicade” manufactured by Mitsubishi Tanabe Pharma Corporation) was dissolved in a buffer for papain treatment (0.1 M AcOH—AcONa, 2 mM EDTA, 1 mM cysteine, pH 5.5), and agarose on which papain was immobilized (“Papain Agarose from papaya latex” manufactured by SIGMA) was added thereto. The mixture was incubated with stirring by a rotator at 37° C. for about 8 hours. The IgG-Fab was purified by recovering as a flow-through fraction in an affinity chromatography using MabSelect SuRe column (GE Healthcare Bioscience) from the reaction mixture which contained both of a Fab fragment and a Fc fragment and which was separated from the agarose on which papain was immobilized. The obtained IgG-Fab solution was subjected to purification by gel filtration chromatography using Superdex 75 10/300 GL column to obtain the solution of IgG-Fab (aTNF-Fab). In the chromatography, the standard buffer was used for equilibration and separation. Similarly to the above-described Example 1, AKTAprime plus system was used in the chromatography for peptide purification.
The affinity of each various modified SpG-β1# obtained in the above Example 1(2) for aTNF-Fab was evaluated using a biosensor Biacore 3000 (GE Healthcare Bioscience) utilizing surface plasmon resonance. In the present Example, the aTNF-Fab obtained in the above Example 2(1) was immobilized on a sensor tip, and each of the peptide was flown on the tip to detect the interaction between the two. The aTNF-Fab was immobilized on a sensor tip CM5 by amine coupling method using N-hydroxysuccinimide (NHS) and N-ethyl-N′-(3-dimethylaminopropyl)carbodiimide hydrochloride (EDC), and ethanolamine was used for blocking. All of the sensor tip and reagents for immobilization were manufactured by GE Healthcare Bioscience. The aTNF-Fab solution was diluted about 10 times using a buffer for immobilization (10 mM AcOH—AcONa, pH 4.5), and the aTNF-Fab was immobilized on the sensor tip in accordance with the protocol attached to the Biacore 3000. In addition, a reference cell as negative control was also prepared by activating another flow cell on the tip with EDC/NHS, immobilizing nothing and blocking with ethanolamine. Peptide solutions of each various modified SpG-β1# having concentrations of 0.01, 0.1, 1 or 10 μM were prepared using a running buffer (20 mM NaH2PO4—Na2HPO4, 150 mM NaCl, 0.005% P-20, pH 7.4). The peptide solution was added to the sensor tip in a flow rate of 40 μL/min for 1 minute. Bonding response curves at the time of addition (association phase, for 1 minute) and after the addition (dissociation phase, for 1 minute) were sequentially obtained at a measurement temperature of 25° C. After each measurement, the cells were washed using about 20 mM NaOH. The bonding response curve obtained by subtracting the bonding response curve of the reference cell was subjected to fitting analysis by a binding model of 1:1 using a software BIA evaluation attached to the system, and affinity constant (KA=kon/koff) to aTNF-Fab was calculated. The result is shown in Table 2 with each binding parameter of GB1#-Cont.1d, which parameter was measured in Comparative Example 2.
An affinity of GB1#-Cont.1d prepared in Comparative example 1 for aTNF-Fab prepared in Example 2(1) was evaluated similarly to the procedure of Example 2(2).

[2] = test system: aTNF-Fab; assay: Acid dissociation pH by pH linear gradient chromatography on aTNF-Fab-immobilized column; assay type: binding; conditions: for Dissociation pH (pH at elution peak top): pH linear gradient from pH 5.5 to pH 2.5; for elution position in pH gradient compared with peptide without mutation: Table 3 and FIG. 2
Protocol: An affinity separation matrix on which aTNF-Fab obtained in the above Example 2 was immobilized was prepared by using a commercially available coupling column for immobilizing a ligand. The column has an amino group as a functional group for coupling.
As a water-insoluble carrier, 1 mL of a commercially available prepacked column (“Hitrap NHS activated HP” manufactured by GE Healthcare Bioscience) was used. The column contains a crosslinked agarose as a base material and an amino group is introduced as an active functional group for immobilizing a protein ligand, and a ligand was immobilized in accordance with the product manual. Specifically, 2 mL of ice-cooled 1 mM HCl was flown at a rate of 1 mL/min repeatedly three times to remove isopropanol in the column.
Then, 1 mL of a 1 mg/mL aTNF-Fab solution in a coupling buffer (0.2 MNaHCO3, 0.5 MNaCl, pH 8.3) was immediately flown at the same rate. The top and bottom of the column were stoppled, and the column was stood still at 25° C. for 30 minutes to immobilize the obtained ligand on the column.
Then, the column was opened, and 3 mL of the coupling buffer was flown at the same rate to recover the unreacted aTNF-Fab. Next, 2 mL of a blocking buffer (0.5 M ethanolamine, 0.5 M NaCl, pH 8.3) was flown repeatedly three times and 2 mL of a washing buffer (0.1 M acetic acid, 0.5 M NaCl, pH 4.0) was flown three times. Each of the above-described procedure to flow the blocking buffer and washing buffer were performed three times one after the other. Finally, 2 mL of a standard buffer (20 mM NaH2PO4—Na2HPO4, 150 mM NaCl, pH 7.4) was flown to complete the preparation of an affinity separation matrix.
By affinity purification chromatography using aTNF-Fab-immobilized column prepared in Example 3(1), an acid dissociation pH at which each modified SpG-β1# prepared in Example 1 (2) was eluted and which corresponded to the peak top of an elution curve of the modified SpG-β1# was measured. Specifically, AKTAprime plus system was used as a chromatography system. The column was equilibrated using ion exchange buffer A (50 mM citric acid-citrate Na, pH 5.5). Into the column, 0.1 mL of a protein solution containing each modified SpG-β1# in the concentration of about 0.1 mg/mL was added, and the protein was eluted with the pH linear gradient from pH 5.5 to pH 2.5. More specifically, the ion exchange buffer A and ion exchange buffer B (50 mM AcOH—AcONa, 1 M NaCl, pH 2.5) were used. […] The pH value which was specified in the experiment as the value corresponding to each elution peak top is shown in Table 3 in addition to the result of Comparative example 3.
An acid dissociation pH of GB1#-Cont.1d prepared in Comparative example 1 was measured using aTNF-Fab-immobilized carrier prepared in Example 3(1) similarly to the procedure of Example 3(2).

| Substance | KA (affinity constant, KA=kon/koff) [1] | koff [1] | kon [1] | Dissociation pH (pH at elution peak top) [2] | elution position in pH gradient compared with peptide without mutation [2] |
| --- | --- | --- | --- | --- | --- |
| GB1#-Cont.1d: modified SpG-β1 of SEQ ID NO: 1 with improved binding capability to Fab; peptide before substitution mutation, Comparative example (TTYKLILNGKTLTGYTTAIAADAATAEIVLKQFANDNGIDGEWTYDDATKTFTVTE; Immunoglobulin-binding peptide) [reference compound] | 2.45 ×10^6 [M^−1] | 1.70 ×10^−2 [s^−1] | 4.17 ×10^4 [M^−1s] | 2.60 |  |
| GB1#-D36V.1d: modified SpG-β1# single domain with mutation D36V; amino acid SEQ ID NO: 19 (TTYKLILNGKTLTGYTTAIAADAATAEIVLKQFANVNGIDGEWTYDDATKTFTVTE; GB1#-mutant) | 0.51 ×10^6 [M^−1] | 6.40 ×10^−2 [s^−1] | 3.28 ×10^4 [M^−1s] | 3.40 | eluted earlier than GB1#-Cont.1d |
| GB1#-T17V.1d: modified SpG-β1# single domain with mutation T17V; amino acid SEQ ID NO: 18 (TTYKLILNGKTLTGYTVAIAADAATAEIVLKQFANDNGIDGEWTYDDATKTFTVTE; GB1#-mutant) | 0.57 ×10^6 [M^−1] | 3.35 ×10^−2 [s^−1] | 1.91 ×10^4 [M^−1s] | 3.00 | eluted earlier than GB1#-Cont.1d |
| GB1#-T17A.1d: modified SpG-β1# single domain, SEQ ID NO: 1 with Thr at 17th position substituted by Ala; amino acid SEQ ID NO: 17 (TTYKLILNGKTLTGYTAAIAADAATAEIVLKQFANDNGIDGEWTYDDATKTFTVTE; GB1#-mutant) | 0.88 ×10^6 [M^−1] | 2.85 ×10^−2 [s^−1] | 2.50 ×10^4 [M^−1s] | 2.85 | eluted earlier than GB1#-Cont.1d |
